Reference: BindingDB's records for doi:10.1016/0960-894X(96)00290-9 (1996)

Assay: Inhibition of pancreatic cholesterol esterase using p-nitrophenylacetate or cholesteryl [1-14C]-oleate as substrates

Row | IC50 [µM] | Compound
1 | 10 | CC(C)(C)[C@H]1CC[C@H](CC(=O)C(F)(F)C(F)(F)F)CC1 [1-(4-tert-Butyl-cyclohexyl)-3,3,4,4,4-pentafluoro-butan-2-one]
2 | > 100 | CCCCCCCCCCCCC(F)(F)C(=O)C[C@H]1CC[C@]2(C)CCCC[C@H]2C1 [3,3-Difluoro-1-((2S,4aS,8aS)-4a-methyl-decahydro-naphthalen-2-yl)-pentadecan-2-one]
